Results taken from patent US20210299116A1, “METHODS FOR REDUCING ABNORMAL SCAR FORMATION” (CORNELL UNIVERSITY, priority 2018, published 2021).
“Also recorded” adds a separate entry of the source.

Experiments:
[1] = tested on: HLF cells (fibroblasts); assay: in vitro gel contraction assay; type: cell-based; conditions: for TGF-β induced fibroblast contracture (gel contraction): TGF-β + RXD, 48 hour incubation
Protocol: Evaluation of fibroblasts contractility was performed as previously described by […] et al (Bio-protocol 8(18): e3021, 2018). Briefly, HLF cells are resuspended in 1 mg/ml collagen and then pipetted into 24 well plates. Collagen is allowed to solidify for 30 minutes at room temperature. Media (500 μl) is then added to each of the wells and the gels are dissociated from the walls of the well. Gels are treated and allowed to incubate for 48 hours at 37° C. and 5% CO2. After the 48 hour incubation, gels are stained with crystal violet stain in order to better visualize contraction. Images are analyzed using Image J software and the fold change compared to a no cell control is determined.

[2] = tested on: smooth muscle actin (SMA) in fibroblasts; assay: TGF-β induced smooth muscle actin (SMA) in fibroblasts (Western blot, immunohistochemistry); type: cell-based; conditions: TGF-β stimulated fibroblasts
Description: Scar contracture is a painful aspect of hypertrophic scarring due to increased SMA in the fibroblasts. During the inflammatory phase of wound healing, the cytokine transforming growth factor β (TGF-β) is secreted and can activate fibroblasts to produce SMA.

[3] = tested on: incisional wound in C57bl/6 mice; assay: rodent incisional wound model, incision sutured with silk imbedded with drug; type: in vivo, mouse
Description: As there are no murine models for hypertrophic or keloid scarring, the inventors relied on a classic rodent incisional wound model consisting of a longitudinal para-vertebral incision 1-2 cm long through the entire thickness of the skin and cutaneous muscle. Wounds (WD) and size matched pieces of dorsal dermis (CTR) were excised and processed for light and polarized light microscopy: fixation, embedding, sectioning and stained with hematoxylin-eosin (inflammatory cells) and Gomori Trichrome (collagen staining), tensile strength measurements and qPCR.
In some experiments, a drug was delivered locally and directly to the wound. In some embodiments, the drug was impregnated in the wound closure material, silk suture. In some experiments, the drug was eluted into the wound during wound healing leading to closure and scar formation. Wound healing was monitored over 14 days.
Wounds (WD) and size matched pieces of dorsal dermis (CTR) were excised and processed for light microscopy: fixation, embedding, sectioning and stained with hematoxylin-eosin (inflammatory cells) and Gomori Trichrome (collagen staining).
Using wild type C57bl/6 mice, wound healing experiments were next performed where the incision was sutured with silk imbedded with ketotifen, a mast cell stabilizer. This way the drug could be delivered continuously and locally during wound healing.

[4] = 14 days post-incision, C57bl/6 mice, ketotifen-impregnated silk vs untreated silk

SMILES | fibroblast gel contraction, change from control ([1]; RXD added alone, vs control) | TGF-β induced fibroblast contracture (gel contraction) [1] | TGF-β induced fibroblast contracture (gel contraction) ([1]; listed as Roxadustat) | SMA staining of fibroblasts (immunohistochemistry) [2] | abundance of TGF-β induced SMA in fibroblasts (Western blot) [2] | abundance of TGF-β induced SMA in fibroblasts (Western blot) ([2]; listed as Roxadustat) | relative abundance of newly synthesized collagen III mRNA in excised wound scar (q-PCR) ([3]; 14-day, drug group compared to untreated) | inflammatory response to the incisional wound (immune cells in H&E stained scar) ([3]; 7 days post-incision, C57bl/6 mice, ketotifen eluted from silk suture vs untreated wound) | scar collagen content (Gomori trichrome stain) [3, 4] | scar width (Gomori trichrome stain) [3, 4] | tensile strength of the scar (peak tension, tensitometry) ([3]; 14 days post-incision, ketotifen-treated vs untreated mice) | newly synthesized collagen III in wound scar (birefringence microscopy) ([3]; ketotifen eluted from suture vs suture alone)
Cc1nc(C(=O)NCC(=O)O)c(O)c2ccc(Oc3ccccc3)cc12 [RXD, N-[(4-hydroxy-1-methyl-7-phenoxyisoquinolin-3-yl)carbonyl]glycine] | significant changes | inhibited | significantly reduces | inhibited | inhibited | significantly reduces |  |  |  |  |  | 
CN1CCC(=C2c3ccccc3CC(=O)c3sccc32)CC1 [ketotifen] |  |  |  |  |  |  | significantly less | lessens the inflammatory response | decreases | significantly less; also recorded: decreases | not affected | less newly synthesized collagen III; also recorded: decreases newly synthesized collagen (III)
